The test system of test [1] is WM-164 melanoma cell line. Nature of the test: Sulforhodamine B (SRB) cytotoxicity assay, WM-164. The note with it: Homo sapiens, WM164, 48 h exposure, diastereomeric mixtures, value ± standard error, read-out: IC50 ± SEM WM-164 (converted). In kind it is cell-based. Here is the method:
(§1) Cytotoxicity of these newly synthesized compounds was examined in two human melanoma cell lines (SK-MEL-188 and WM-164) and in a fibroblast cell line. Activity on fibroblast cells was used as a control to determine the selectivity of these compounds against melanoma. Standard sulforhodamine B (SRB) assay was used. Cells were exposed to a wide range of concentrations for 48 h in round-bottom 96-well plates. Cells were fixed with 10% trichloroacetic acid and washed five times with water. After cells were air-dried overnight and stained with SRB solution, total proteins were measured at 560 nm with a plate reader. IC50 (i.e., concentration which inhibited cell growth by 50% of DMSO-treated controls) values were obtained by nonlinear regression analysis with GraphPad Prism (GraphPad Software, San Diego, Calif.).
(§2) The ability of thiazolidine derivatives to inhibit the growth of two melanoma cancer cell lines and fibroblast cells is summarized in Table 1. […] At this early stage, all compounds were used as a diastereomeric mixture if they contain chiral centers in order to select the most promising compounds for further development.
(In general: The SRB assay estimates cell density from bound dye.)

Test [2] deals with SK-MEL-188 melanoma cell line. Description: Sulforhodamine B (SRB) cytotoxicity assay, SK-MEL-188. In kind it is cell-based. Particulars: Homo sapiens, 48 h exposure, diastereomeric mixtures, value ± standard error, read-out: IC50 ± SEM SK-MEL-188 (converted). Here is the method:
as §1, §2

Another test has as its system fibroblast cell line. Nature of the test: Sulforhodamine B (SRB) cytotoxicity assay, fibroblast control. In kind it is cell-based. Particulars: 48 h exposure, control for selectivity, value ± standard error, read-out: IC50 ± SEM Fibroblast (converted). How it is done: as §1, §2
In another test the test system is melanoma cells. Nature of the test: SRB cytotoxicity assay, statements not tied to one cell line. In kind it is cell-based, human. The note with it: for IC50: Homo sapiens, summary over the cell lines, read-out: IC50 in the in vitro assay (cell line not given). Here is the method:
as §1, §2

One may read the IC50 as the concentration needed to halve the response being measured. In the case of `CON(C)C(=O)[C@@H]1CSC(c2ccccc2)N1` (stereo partly drawn) [Compound 323, (4R)—N-methoxy-N-methyl-2-phenylthiazolidine-4-carboxamide], the IC50 (in test [1]; in test [2]; in the test on fibroblast cell line) was above 100 µM throughout. For the same compound, the potency/activity in words result in the test with melanoma cells (melanoma cells and fibroblast cells) is listed as “completely abolished potency”.
For the compound `CCCCCCCCCCCCCCNC(=O)[C@@H]1CSC(c2ccccc2)=N1` [Compound 328, (R)-4,5-dihydro-2-phenyl-N-tetradecylthiazole-4-carboxamide], the IC50 was above 50 µM in test [1], 42.1 ± 5 µM in test [2], above 50 µM in the test with fibroblast cell line and above 20 µM in the test with melanoma cells.
For `CCCCCCCCCCCCCCNC(=O)[C@@H]1CSC(c2ccc(OC)c(OC)c2)=N1` [Compound 329, (R)-4,5-dihydro-2-(3,4-dimethoxyphenyl)-N-tetradecylthiazole-4-carboxamide], the IC50 in test [1] is 42.9 µM; in test [2], 19.1 µM; in the test with fibroblast cell line, above 50 µM; with melanoma cells, above 20 µM.
As to `CCCCCCCCCCCCCCCCNC(=O)[C@@H]1CSC(c2ccccc2NC(C)=O)N1C` (stereo partly drawn) [Compound 330, (4R)-2-(2-acetamidophenyl)-N-hexadecyl-3-methylthiazolidine-4-carboxamide], the IC50 in test [1] was above 100 µM; in test [2], 29.1 ± 1 µM; in the test with fibroblast cell line it was above 100 µM; in the test on melanoma cells, above 20 µM.
Turning to `CNC(=O)c1cc(Oc2ccc(NC(=O)Nc3ccc(Cl)c(C(F)(F)F)c3)cc2)ccn1` [Sorafenib, reference compound], the half-maximal inhibitory concentration (IC50) in test [1] was 4.7 ± 0.3 µM; in test [2], 4.3 ± 0.2 µM; in the test with fibroblast cell line, above 100 µM. The “selectivity: ratio of IC50 values for fibroblast cells over melanoma cells” value in the test with melanoma cells (fibroblast IC50 / melanoma IC50) is given as above 25. For the same compound, the “potency against melanoma cells relative to compound 317 (times less potent)” value in the test on melanoma cells (versus compound 317) is recorded as “about 10 times”.

The values are drawn from patent publication US20080255213A1, “THIAZOLIDINONE AMIDES, THIAZOLIDINE CARBOXYLIC ACID AMIDES, AND SERINE AMIDES, INCLUDING POLYAMINE CONJUGATES THEREOF, AS SELECTIVE ANTI-CANCER AGENTS” (University of Tennessee Research Foundation, priority 2007, published 2008).
